Data published in patent US20140322296A1, “PIPERAQUINE MICROCAPSULES AND COMPOSITIONS CONTAINING THEM” (Aptalis Pharma S.r.l., priority 2013, published 2014).

Test: Compatibility of piperaquine with the coacervation process (heating/cooling thermal cycles)
Format: physicochemical
Method: 1. Methods for Characterization • Particle size distribution (PSD): an amount of microcapsules in the range of 25-50 g of microcapsules is poured into a 100 mL HDPE bottle, 0.2% (w/w) of Syloid 244 (colloidal silicon dioxide, WR Grace, Columbia, Md.) and manually blended for 2 minutes; the mixture of microcapsules and Syloid 244 is sieved then with a digital Octagon apparatus for 10 minutes at amplitude 7. • Bulk density and tapped density of powders is measured according to Method USP 34 <616>. • Dissolution profile: Ph Eur [2.9.3]; apparatus n^o 2; dissolution medium: gastric simulated fluid pH 1.2 0.5% of Tween 80 without pepsin; dissolution medium volume: 900 mL; • dissolution medium temperature: 37±0.5° C.; withdrawal at: 5, 15, 30, 60 and 120 min. • Water content: Karl Fischer titration: Ph. Eur. 2.5.12 Method; following sample titration conditions are applied: sample solvent: methanol:formamide 1:1; sample weight: 50 mg; the value of water content in a sample is expressed as % w/w. • Residual cyclohexane: gas-chromatography (head space analysis). • Photostability Testing: ICH conditions “Q1B: Photostability (Option 1)”. • X-Ray Powder Diffraction (XRPD) measurements are performed on a Philips X'Pert PRO diffractometer (Bragg-Brentano geometry). • IR identity. A compatibility study is carried out on piperaquine to assess the compatibility of the drug with the coacervation process. In particular, piperaquine undergoes heating/cooling cycles mimicking thermal excursions of the process. Then, the following tests are performed both before and after thermal cycles to ascertain the stability of piperaquine: water content analysis (Karl Fisher test); effect of mechanical stress; crystalline structure by XRPD.

Compound: Clc1ccc2c(N3CCN(CCCN4CCN(c5ccnc6cc(Cl)ccc56)CC4)CC3)ccnc2c1 [PQP•4H2O, 4,4′-(1,3-propanediyldi-4,1-piperazinediyl)bis(7-chloroquinoline)phosphate hydrate (1:4:4)]
- Assay (%) (PQP•4H2O) (after thermal cycle): 99.9%
- Water content (%) (after thermal cycle): 8.5%
- Assay (%) (PQP•4H2O) (before thermal cycle): 99.9%
- Water content (%) (before thermal cycle): 8.9%
- Effect of heating/cooling cycle on the drug (thermal excursions mimicking the coacervation process): not affected by heating/cooling cycle
